# Measured values: paper PMC9182130 (Molecules, 2022)
# Experiments:
# [1] = human, in vivo
# [2] = 4 °C
# [3] = human
# [4] = human; remark: listed apart in the source
Structure (SMILES),half-life compared with ST-246 [1],maximum concentration in plasma compared with ST-246 [1],dose of ST-246 equivalent to 600 mg of NIOCH-14 according to the area under the curve ([1]; po) [mg],"AUCo-inf ([1]; po, 600 mg)","Cl/F ([1]; po, 600 mg) [L/h]",maximal ST-246 concentration in real-world plasma samples ([1]; po) [ng/mL],time of stability in autosampler [2] [h],time of stability at −20 °C [3] [days],time without degradation at −20 °C [3],% of nominal concentrations after three consecutive freeze-thaw cycles [4]
O=C(NNC(=O)C1C2C=CC(C3CC23)C1C(=O)O)c1ccc(C(F)(F)F)cc1 (stereo not shown) [NIOCH-14],longer,lower,~250,8864 ± 4117,80 ± 37,,,,,
"O=C(NN1C(=O)[C@@H]2[C@@H]3C=C[C@@H]([C@H]4C[C@@H]34)[C@@H]2C1=O)c1ccc(C(F)(F)F)cc1 [ST-246, tecovirimat]",,,,,,≤ 1000,48,≥ 90,at least 3 months,96–115%
